# Entries after “also recorded” stand apart in the source; their conditions may differ.
# Legend:
# Type in all cases: cell-based, human
# [1] = test system: KG1a, HL60 and U937 cells; assay: Cell cycle of leukaemic cell lines synchronised in G0-G1 with L-mimosine; conditions: HL60 and U937 synchronised in G0-G1, over 48 hours, vs control peptide
# Protocol: The proportion of KG1a, HL60 and U937 cells in G0-G1 phase of the cell cycle upon HXP peptide treatment was compared to CXP4. Cells were synchronised in G0-G1 phase of the cell cycle by exposure to 0.5 mM L-mimosine. Results are expressed as the mean percentage of four experiments (+/−SE).
# KG1a, HL60 and U937 cell cycle profiles were analysed over 48 hours in culture with HXP peptide or the control peptide (FIG. 10). The effect of HXP peptide on non-synchronised cells varied considerably (data not shown).
# AC133+ cells = assay: Short-term ex-vivo AC133+ cell expansion culture with HXP peptide, trypan blue cell count
# Protocol: Umbilical Cord Blood (UCB) specimens were collected from full-term deliveries scheduled for elective caesarian sections following hospital ethical regulations.
# Samples were diluted 1 in 4 in PBS supplemented with a citrate-based anti-coagulant (0.6% ACD-A, Baxter, France) and Bovine Serum Albumin (0.5% fraction V, Sigma Aldrich, UK) at pH=7.4 and referenced as “ACD-A buffer”. Diluted UCB was carefully overlaid in a 1:4 ratio onto a research grade Ficoll-Paque solution (d:1.077 g/cm^3, Pharmacia Biotech, Sweden) prior to Centrifugation (400 g, 30 minutes, 22° C.). The mononuclear cells (MNC) layer was extracted, washed twice in ACD-A Buffer, pelleted (400 g, 10 minutes) before resuspending in ACD-A buffer and cell aliquots taken for cell viability/enumeration using trypan blue (Sigma Aldrich).
# AC133+ cells were obtained from MNC after immunomagnetic separation using the AC133 mini-MACS selection kit (Miltenyi Biotec, Germany): labelling volume 500 μl/10^8 cells in ACD-A buffer containing Fc Receptor-blocking reagent (100 μl, 5 min incubation, 4° C.) before adding colloidal super-paramagnetic MACS MicroBeads conjugated to monoclonal mouse anti-human AC133/1 antibody (100 μl IgG1 isotype, 25 min incubation, 4° C.). Cells were then washed (5 ml ACD-A buffer, 400 g, 10 min, 4° C.) before resuspended cells in 500 μl ACD-A buffer were applied to a chilled MACS positive selection column (MS+/RS+) on a magnet. The column was rinsed with cool ACD-A buffer (4×500 μl) and the AC133− cell population retained at 4° C. After magnet removal AC133+ cells were eluted with 1 ml of cold ACD-A buffer. The AC133+ cell fraction was reapplied to a new column, prior to cell enumeration and viability assays.
# AC133+ cells were seeded in duplicate in liquid culture system at 2-4×10^4 cells/ml. […] Cultured cells were then counted at various time points using trypan blue exclusion method described above.
# [2] = test system: Hox genes in malignant cell lines; assay: RT-PCR of HOX gene expression in malignant cell lines; conditions: 20 μg/ml, at least two different Hox genes in each case
# Protocol: A number of cell lines representing different malignancies were grown in culture for seven days, and HXP peptide or the control peptide CXP were added to a final concentration of 20 μg/ml on day 3. The bars represent the fold increase of each cell line over the seven days; the empty, dashed bars indicate the CXP peptide treated cells, whilst the solid bars indicate the addition of HXP peptide. Error bars represent the standard error the mean, and n is the number of experiments performed. The cell lines used were: AML—KG1a; Bladder—HT; Breast—SKBR3; Cervical—HeLa; Colon—Colo41; Gastric—MKN-45; Large cell lung cancer—MES; Melanoma—DX3; Ovarian—1847; Pancreatic—Panc-Tu1; Prostate—LNCAP; Renal—HT1376; Small cell lung cancer—NCI-h510A. The change in the expression of the HOX genes expressed by each cell line was assessed by RT-PCR on RNA extracted from the cells at the end of seven days. ‘HOX gene inactivated’ means that the level of expression of each of the listed HOX genes was at least five fold lower in the HXP peptide treated cells compared to the control. *Analysis not yet complete.
# The sequences of RT-PCR primers used are set out below. For each primer pair, the amplified region is given in relation to the known gene sequence as available through GenBank (http://www.ncbi.nlm.nih.gov/entrez).
# [3] = test system: leukaemic cell lines KG1a, KG1, HL60 and U937; assay: Leukaemic cell lines culture, trypan blue cell count (Example 1); conditions: 20 μg/ml
# Protocol: KG1a, KG1, HL60 and U937 cell lines were obtained from the ATCC (catalogue Nos. CCL-246.1, CCL-246, CCL-240 and CRL-1593.2, respectively.
# Cell lines were seeded at 1-5×10^5 cells/ml in liquid culture system made of RPMI-1640 medium (Life Technologies, UK) supplemented with Foetal Calf Serum (10% Sigma Aldrich) and gentamycin (50 μg/ml, Life Technologies) and at least in duplicate. When required the HXP peptide was added to the medium (20 μg/ml). Cell lines were cultured for up to 7 days at 37° C., 5% CO2 in humidified atmosphere. Cultured cells were then counted at various time points using trypan blue exclusion method described above.
substance,measurement,setting,value
WYPWMKKHHRQIKIWFQNRRMKWKK [HXP peptide],proportion of cells leaving phase G0-G1 and entering the cell cycle,[1],induces a significantly higher proportion of cells to leave the phase G0-G1 and enter the cell cycle
same,cell growth of AC133+ cells,"AC133+ cells; 20 μg/ml, TPOFLK supplemented liquid culture",slowing their growth; also recorded: slowed
same,AC133+ cell proliferation after withdrawal of HXP peptide,AC133+ cells; withdrawal at 7 days,started to proliferate again
same,Hox gene expression in each cancer cell line with reduced proliferation,[2],transcriptionaly silenced
same,inhibition of leukaemic cell lines (cell growth),[3],inhibits

# From US7728105B2, “Peptides impairing PBX dependent gene regulation” (St. George's Hospital Medical School, priority 2002, dated 2010)
